Experimental data published in patent US9572911B2, “Method for decellularization of tissue grafts” (University of Florida Research Foundation, Inc., priority 2013, dated 2017).

Biological target: purified laminin-1 (Homo sapiens, UniProt P07942+P11047+P25391)
Assay: Effects of individual detergents on the neurite-promoting activity of purified laminin
Format: cell-based
Settings: dialyzed, neurons 24 hours, FIG. 14
Procedure: FIG. 14. Effects of individual detergents on the neurite-promoting activity of purified laminin. Purified laminin-1 was mixed with individual detergents as follows: Control (buffer alone), sulfobetaine-10 (125 mM), sulfobetaine-16 (0.6 mM) and […] (0.14%). The mixtures were extensively dialyzed and then were added to tissue culture wells to form a substratum onto which dissociated neurons were seeded. After 24 hours in culture the length of neurites were measured. Data represent the specific activities (ED50) calculated from mean scores from dilution series performed in duplicates in 4 separate experiments
The extracellular matrix of nerve is known to promote the growth of axons. In particular, the basal lamina tubes encasing axons provides a potent stimulus for axonal growth in nerve regeneration. The cryoculture assay used in the experiments described above relies on the structure and growth-promoting activity of the basal lamina. It is well documented that laminin is the major neurite-promoting component of the nerve basal lamina. […] Therefore, tests were performed to examine the effects of individual detergents on purified laminin. Laminin activity was unchanged by SB-10. Exposure to SB-16 reduced laminin activity approximately 50%.

| Structure (SMILES) | reduction of laminin activity (sulfobetaine-16 0.6 mM) | laminin neurite-promoting activity after exposure to detergent (SB-10 125 mM, SB-16 0.6 mM, Triton X-200 0.14%) |
| --- | --- | --- |
| CCCCCCCCCCCCCCCC[N+](C)(C)CCCS(=O)(=O)[O-] [SB-16, sulfobetaine-16] | approximately 50% | – |
| CCCCCCCCCC[N+](C)(C)CCCS(=O)(=O)[O-] [SB-10, sulfobetaine-10] | – | unchanged |
